From PMC5655689, “Therapeutic potential of the phosphino Cu(I) complex (HydroCuP) in the treatment of solid tumors” (Scientific Reports, 2017)

Columns and labels:
[1] = test system: LoVo colorectal oxaliplatin-sensitive xenograft; details: mouse, in vivo, ip, 30 mg/kg
Description: (§5) To this aim, we developed the OXP-sensitive and OXP-resistant LoVo xenografts in BALB/c nu/nu mice. […] OXP-sensitive or OXP-resistant LoVo cells (1 × 10^7) were injected in the flank of mice. Once tumor was established (tumor volumes of about 0.4 cm^3, around 14 days after tumor inoculation), mice were randomly divided into six groups (6 animals per group, 8 controls). The HydroCuP-treated groups (6 mice each group) received daily 30 mg/kg by i.p. injection and the OXP-treated group was given 2 mg/kg by i.p. injection. At day 30, animals were sacrificed, and the inhibition of tumor growth was determined (Fig. 4, panel A). Measurements of body weights were recorded from day 14 every 2 days until the experimental endpoint (Fig. 4, panel B).
(§6) (A) LoVo and LoVo-OXP tumor xenografts in 6-week-old BALB/c nu/nu mice by injecting 1 × 10^7 tumor cells subcutaneously on the left dorsal flank. After 24 h from tumor implantation, mice randomly divided into six groups (6 animals per group). Chemotherapy delayed until day 14 (tumor volumes of about 0.4 cm^3). From day 14, HydroCuP dosed daily at 30 mg/kg i.p., OXP dosed daily at 2 mg/kg i.p. At day 30, animals sacrificed, and the inhibition of tumor growth determined by comparing the volume of the control group and the treatment group expressed as percentage referred to the control animals. Error bars indicate the S.D. *p < 0.05, **p < 0.01, with respect to control. […] Body weight was measured every two days and was taken as a parameter of systemic toxicity. The error bars indicate the S.D. **P < 0.01; *P < 0.05.
(§7) LoVo and LoVo-OXP tumor xenografts were established in 6-week-old BALB/c nu/nu mice by injecting 1 × 10^7 tumor cells subcutaneously (100 μL in serum free medium) on the left dorsal flank. After 24 h from tumor implantation, mice were randomly divided into six groups (6 animals per group, 8 controls). Chemotherapy was delayed until the tumor was about 0.4 cm^3 (day 14). From day 14, HydroCuP was dosed daily at 30 mg/kg i.p. whereas OXP was dosed daily at 2 mg/kg i.p. Measurements of body weights and tumor volumes were recorded from day 14 every 2 days until the experimental endpoint. The long axis (L) and the short axis (S) were measured with callipers, and the tumor volume (V) was calculated using the following equation: V = SxSxL/2. At day 30, animals were sacrificed, and the inhibition of tumor growth was determined by comparing the volume of the control group and the treatment group expressed as percentage referred to the control animals.

[2] = test system: LoVo colorectal oxaliplatin-resistant xenograft; experiment: In vivo activity toward LoVo-OXP (OXP-resistant) tumor xenograft in BALB/c nu/nu mice; details: 30 mg/kg daily i.p. from day 14, day 30
Description: as §5, §6, §7

[3] = Nephrotoxicity: urinary biomarkers (uTP, NAG) in Sprague Dawley rats; format: in vivo, rat; details: single i.p. HydroCuP 50 mg/kg vs CDDP 1.5 mg/kg
Description: Figure 5 Neurotoxicity studies. […] Bar: 500 µm. […] Nephrotoxicity studies. […] Error bars indicate the S.D. The potential nephrotoxic effect of HydroCuP was evaluated by measuring some specific biomarkers in urines obtained from 8-week-old male Sprague Dawley rats treated with a single i.p. injection of HydroCuP and CDDP. Urines of the treated animals were collected after 24, 72 and 120 h, and urinary total protein (uTP) and N-acetyl-β-D-glucosaminidase (NAG) were evaluated as signs of nephrotoxicity. […] On the contrary, treatment with HydroCuP determined a 24 h excretion of uTP roughly 12 times lower than that recorded with CDDP (Fig. 5, panel D). Following 120 h, the levels of uTP excreted by HydroCuP were 11 times lower compared with the reference metallodrug. Eight-week-old male Sprague Dawley rats were randomly allocated to five groups (five animals per group) and treated with a single i.p. injection of HydroCuP (50 mg/kg) or the vehicle solution (0.2 mL saline solution, control). Cisplatin (1.5 mg/kg,) was also used under the same experimental conditions for comparison purposes. […] Later, urines were centrifuged (150 g for 10 minutes at room temperature) to discard debris and aliquoted to measure creatinine, uTP and NAG. Urine creatinine assays were performed using creatinine assay kit from Sigma Chemical Co. (St. Louis, MO). uTPs were measured by means of BioRad Total Protein Test (Hercules, CA). Urinary NAG was measured spectrophotometrically with the NAG kit (Roche diagnostics, Basel, Switzerland) according to the manufacturer’s protocols. uTP and NAG are expressed as grams per millimoles of creatinine (g mmol^−1 creatinine).

[4] = Tissue distribution of copper in LLC-bearing mice (GF-AAS); format: in vivo, mouse; details: single i.p. 50 mg/kg on day 10, 24 h
Description: To better understand the pharmacology and toxicology of the novel copper(I) complex, tissue samples, collected from LCC-bearing C57BL mice were analysed. […] On day 10 after tumor implantation, mice were treated with a single i.p. injection of 50 mg/kg of HydroCuP. After 24 hours, animals were sacrificed and copper content was quantified by graphite furnace atomic absorption spectroscopy (GF-AAS) analysis in several organs and normalized to control mice tissues. The solid tumor mass presented the highest copper concentration (at least 1.4 times higher than that detected in spleen), followed by spleen, kidney, liver and stomach.
Figure 3 Tissue distribution in LLC bearing C57BL mice. C57BL mice were inoculated i.m. on the right flank with LLC cells (2 × 10^6). After 10 days, HydroCuP was administered i.p. at a dose of 50 mg/kg. The mice were sacrificed after 24 hours and tumor, brain, spleen, kidney, intestine, liver and stomach were excised. Tissues were washed in ice-cold saline and weighed after removing excess fluid. All samples were mineralized in HNO3 and Cu content in each sample was measured by GF-AAS.
C57BL mice were inoculated […]. on the right flank with LLC cells (2 × 10^6). […] All samples were mineralized in HNO3 and Cu content in each sample was measured by GF-AAS (Graphite Furnace Atomic Absorption Spectroscopy).

[5] = test system: HCT-15 human colon cancer spheroids; experiment: 3D spheroid cell viability, acid phosphatase (APH) assay, HCT-15; format: cell-based; details: HCT-15 spheroids, 72 h
Description: (§1) In order to improve the predictive capacity of the in vitro assays, we tested HydroCuP activity in two 3D cell cultures of human colon cancer cells, HCT-15 and LoVo. The colon cancer spheroids were treated with HydroCuP for 72 h and the cell viability was assessed by means of the acid phosphatase (APH) assay (Fig. 1, panel A).
(§2) Figure 1 Activity in 3D cell cultures. (A) Spheroids (2.5 × 10^3 cells/well) were treated for 72 h with increasing concentrations of tested compounds. The growth inhibitory effect was evaluated by means of APH test. IC50 values were calculated from the dose-survival curves by four parameter logistic model (P < 0.05). SD = standard deviation.
(§3) Spheroids were initiated in liquid overlay by seeding 2.5 × 10^3 HCT-15 and LoVo cells/well in phenol red-free RPMI-1640 medium (Sigma Chemical Co.), containing 10% FCS and supplemented with 20% methyl cellulose stock solution. A total of 150 μl of this cell suspension was transferred to each well of a round bottom non-tissue culture treated 96 well-plate (Greiner Bio-one, Kremsmünster, Austria) to allow spheroid formation within 72 h.
(§4) A modified APH assay, which is based on quantification of cytosolic acid phosphatase activity, was used for determining cell viability in spheroids. Briefly, the pre-seeded spheroids were treated with fresh medium containing the compound to be studied at the appropriate concentration (range 5–150 μM). Triplicate cultures were established for each treatment. After 72 h, each well was treated with 100 μL of the assay buffer (0.1 M sodium acetate, 0.1% Triton-X-100, supplemented with ImmunoPure p-nitrophenyl phosphate; Sigma Chemical Co.) and, following 3 h of incubation, 10 μL of 1 M NaOH solution were added. The inhibition of the cell growth induced by the tested complexes was detected by measuring the absorbance of each well at 405 nm, using a Bio-Rad 680 microplate reader. Mean absorbance for each drug dose was expressed as a percentage of the control untreated well absorbance (T/C) and plotted vs drug concentration. IC50 values, the drug concentrations that reduce the mean absorbance at 405 nm 50% of those in the untreated control wells, were calculated by four-parameter logistic (4-PL) model. Evaluation was based on means from at least four independent experiments.

[6] = parameters: method as in PMID 21388518, PMID 20486256; details: pH 7.4; cited from earlier work
[7] = test system: LoVo human colon cancer spheroids; experiment: 3D spheroid cell viability, acid phosphatase (APH) assay, LoVo; format: cell-based; details: 72 h
Description: as §1, §2, §3, §4

## F[P-](F)(F)(F)(F)F.OC[P+](CO)(CO)[Cu-3]([P+](CO)(CO)CO)([P+](CO)(CO)CO)[P+](CO)(CO)CO [HydroCuP, [Cu(thp)4][PF6]]
[1]
  Body weight and health vs control group: No significant difference in body weight
[2]
  Inhibition of tumor growth (decrease in final tumor volume): about 65%
[3]; urine 24, 72, 120 h
  NAG activity, times lower than CDDP: up to 12
[3]; urine 24 h
  24 h excretion of uTP, times lower than CDDP: roughly 12
[3]; urine 120 h
  uTP excreted, times lower than CDDP: 11
[4]
  Copper content in brain with respect to control animals: no enhance in copper content was detectable in brain
[4]; normalized to control mice tissues
  Copper concentration in tumor mass, times higher than in spleen: at least 1.4
[5]
  IC50 fold lower than CDDP: about 2.5
[5]; APH test, read-out: IC50 (μM) ± SD HCT-15
  IC50: 27 ± 4.25 µM
[6]
  Water solubility: > 2000 µg/mL
[7]
  IC50 fold lower than CDDP: about 2.5
[7]; APH test, read-out: IC50 (μM) ± SD LoVo
  IC50: 23.3 ± 3.2 µM
